Where two headings read alike, the source gives them in different places.
Tests used:
Escherichia coli [1] = assay: MIC, micro-dilution broth method (CLSI); type: cell-based
Klebsiella pneumoniae = assay: MIC, micro-dilution broth method (CLSI); type: cell-based
Escherichia coli [2] = assay: Resistance frequency, large inoculum method; type: cell-based; settings: E. coli ΔtolC JW5503, 32×MIC
Procedure: Selection of resistant mutants. Resistant mutants were selected using the large inoculum method. Briefly, E. coli BW25113, K. pneumoniae ATCC 27736, or E. cloacae ATCC 29893 (˜1.0×10^7 c.f.u.) was plated on 100-mm plates of Luria Bertani agar containing 8, 16, 32, or 64 μg/mL, lolamycin. For E. coli ΔtolC (JW5503), ˜1.0×10^7 c.f.u. was plated on 100-mm plates of Luria Bertani agar containing 0.063, 0.13, 0.25, 0.5 μg/mL lolamycin. Colonies were visible after incubating at 37° C. for 48 h. Resistant colonies were confirmed by growing colonies in selective media with the same concentration of lolamycin.

[3] = Mouse maximum tolerated dose / tolerability; type: in vivo; settings: IP
Procedure: Mouse maximum tolerated dose (MTD) of compound 2 and lolamycin. […] In these studies, 10- to 12-week-old female C57BL/6 mice purchased from Charles River Laboratories were used. The maximum tolerated dose (MTD) of a single compound via IP injection was determined first. Compound 2 and lolamycin were formulated in 50% DMSO, 50% PEG400. Compound 2 and lolamycin were given by intraperitoneal (IP) injection. All the mice were monitored for signs of toxicity for 2 weeks. For multiple doses, the compound was given by daily IP injection for 5 consecutive days and the mice were monitored for signs of toxicity for 1 month. The MTD was the highest dosage with acceptable toxicity (for example, <20% weight loss).
Next, the MTD of lolamycin via oral gavage was determined. Lolamycin was formulated in 20% DMSO, 30% Water, and 50% PEG400. Lolamycin was given via oral gavage. All the mice were monitored for signs of toxicity for 2 weeks. For multiple doses, compound was given twice daily orally for 3 consecutive days and the mice were monitored for signs of toxicity. The MTD was the highest dosage with acceptable toxicity (for example, <20% weight loss). […] The MTD of lolamycin was used to inform the dosing schedule used in subsequent efficacy studies.

E. coli AR0349 = assay: Bacterial sepsis survival model; type: in vivo, CD-1 mice; settings: 100 mg/kg IP twice daily for 3 days
[4] = test system: clinical isolates of E. coli, K. pneumoniae, and E. cloacae; assay: Susceptibility of panel of multidrug-resistant clinical isolates

Fc1ccc(COc2cccc(-c3n[nH]cc3-c3ccncc3)c2)cc1 [Compound 2, 4-(3-(3-((4-fluorobenzyl)oxy)phenyl)-1H-pyrazol-4-yl)pyridine]
0.06 µg/mL: MIC (Escherichia coli [1]; Escherichia coli, E. coli ΔtolC JW5503 (efflux-deficient))
only minimal activity: activity against MDR clinical isolates [4]
well-tolerated: tolerability ([3]; mice, 100 mg/kg twice a day for three days)
> 32 µg/mL: MIC (Escherichia coli [1]; Escherichia coli, ATCCBAA2340, E. coli ATCC BAA-2340, read-out: MIC) | MIC (Escherichia coli [1]; Escherichia coli, ATCCBAA2469, E. coli ATCC BAA-2469, read-out: MIC) | MIC (Escherichia coli [1]; Escherichia coli, ATCCBAA2471, E. coli ATCC BAA-2471, read-out: MIC) | MIC (Escherichia coli [1]; Escherichia coli, E. coli AR0048, read-out: MIC) | MIC (Escherichia coli [1]; Escherichia coli, E. coli AR0055, read-out: MIC) | MIC (Escherichia coli [1]; Escherichia coli, E. coli AR0058, read-out: MIC) | MIC (Escherichia coli [1]; Escherichia coli, E. coli AR0061, read-out: MIC) | MIC (Escherichia coli [1]; Escherichia coli, E. coli AR0067, read-out: MIC) | MIC (Escherichia coli [1]; Escherichia coli, E. coli AR0069, read-out: MIC) | MIC (Escherichia coli [1]; Escherichia coli, E. coli AR0084, read-out: MIC) | MIC (Escherichia coli [1]; Escherichia coli, E. coli AR0085, read-out: MIC) | MIC (Escherichia coli [1]; Escherichia coli, E. coli AR0089, read-out: MIC) | MIC (Escherichia coli [1]; Escherichia coli, E. coli AR0114, read-out: MIC) | MIC (Escherichia coli [1]; Escherichia coli, E. coli AR0119, read-out: MIC) | MIC (Escherichia coli [1]; Escherichia coli, E. coli AR0149, read-out: MIC) | MIC (Escherichia coli [1]; Escherichia coli, E. coli AR0151, read-out: MIC) | MIC (Escherichia coli [1]; Escherichia coli, E. coli AR0162, read-out: MIC) | MIC (Escherichia coli [1]; Escherichia coli, E. coli AR0346, read-out: MIC) | MIC (Escherichia coli [1]; Escherichia coli, E. coli AR0348, read-out: MIC) | MIC (Escherichia coli [1]; Escherichia coli, E. coli AR0350, read-out: MIC) | MIC (Escherichia coli [1]; Escherichia coli, E. coli AR0493, read-out: MIC) | MIC (Escherichia coli [1]; Escherichia coli, E. coli AR0494, read-out: MIC) | MIC (Escherichia coli [1]; Escherichia coli, E. coli AR0495, read-out: MIC) | MIC (Escherichia coli [1]; Escherichia coli, E. coli AR0541, read-out: MIC) | MIC (Escherichia coli [1]; Escherichia coli, E. coli AR0543, read-out: MIC) | MIC (Escherichia coli [1]; Escherichia coli, E. coli AR0546, read-out: MIC) | MIC (Escherichia coli [1]; Escherichia coli, E. coli AR0551, read-out: MIC) | MIC (Escherichia coli [1]; Escherichia coli, E. coli AR0559, read-out: MIC) | MIC (Escherichia coli [1]; Escherichia coli, E. coli AR-0349 (colistin-resistant clinical isolate), read-out: MIC) | MIC (Escherichia coli [1]; Escherichia coli, E. coli AR-0549, read-out: MIC) | MIC (Escherichia coli [1]; Escherichia coli, E. coli ELZ 4004, read-out: MIC) | MIC (Escherichia coli [1]; Escherichia coli, E. coli ELZ 4042, read-out: MIC) | MIC (Escherichia coli [1]; Escherichia coli, E. coli ELZ 4139, read-out: MIC) | MIC (Escherichia coli [1]; Escherichia coli, E. coli ELZ 4239, read-out: MIC) | MIC (Escherichia coli [1]; Escherichia coli, E. coli ELZ 4277, read-out: MIC) | MIC (Escherichia coli [1]; Escherichia coli, E. coli ELZ 4346, read-out: MIC) | MIC (Klebsiella pneumoniae; Klebsiella pneumoniae, ATCC27736, K. pneumoniae ATCC 27736, read-out: MIC) | MIC (Klebsiella pneumoniae; Klebsiella pneumoniae, ATCCBAA1705, K. pneumoniae ATCC BAA-1705, read-out: MIC) | MIC (Klebsiella pneumoniae; Klebsiella pneumoniae, ATCCBAA2146, K. pneumoniae ATCC BAA-2146, read-out: MIC) | MIC (Klebsiella pneumoniae; Klebsiella pneumoniae, ATCCBAA2342, K. pneumoniae ATCC BAA-2342, read-out: MIC) | MIC (Klebsiella pneumoniae; Klebsiella pneumoniae, ATCCBAA2470, K. pneumoniae ATCC BAA-2470, read-out: MIC) | MIC (Klebsiella pneumoniae; Klebsiella pneumoniae, ATCCBAA2472, K. pneumoniae ATCC BAA-2472, read-out: MIC) | MIC (Klebsiella pneumoniae; Klebsiella pneumoniae, ATCCBAA2473, K. pneumoniae ATCC BAA-2473, read-out: MIC) | MIC (Klebsiella pneumoniae; Klebsiella pneumoniae, K. pneumoniae AR0034, read-out: MIC) | MIC (Klebsiella pneumoniae; Klebsiella pneumoniae, K. pneumoniae AR0039, read-out: MIC) | MIC (Klebsiella pneumoniae; Klebsiella pneumoniae, K. pneumoniae AR0041, read-out: MIC) | MIC (Klebsiella pneumoniae; Klebsiella pneumoniae, K. pneumoniae AR0042, read-out: MIC) | MIC (Klebsiella pneumoniae; Klebsiella pneumoniae, K. pneumoniae AR0043, read-out: MIC) | MIC (Klebsiella pneumoniae; Klebsiella pneumoniae, K. pneumoniae AR0044, read-out: MIC) | MIC (Klebsiella pneumoniae; Klebsiella pneumoniae, K. pneumoniae AR0046, read-out: MIC) | MIC (Klebsiella pneumoniae; Klebsiella pneumoniae, K. pneumoniae AR0047, read-out: MIC) | MIC (Klebsiella pneumoniae; Klebsiella pneumoniae, K. pneumoniae AR0049, read-out: MIC) | MIC (Klebsiella pneumoniae; Klebsiella pneumoniae, K. pneumoniae AR0066, read-out: MIC) | MIC (Klebsiella pneumoniae; Klebsiella pneumoniae, K. pneumoniae AR0068, read-out: MIC) | MIC (Klebsiella pneumoniae; Klebsiella pneumoniae, K. pneumoniae AR0075, read-out: MIC) | MIC (Klebsiella pneumoniae; Klebsiella pneumoniae, K. pneumoniae AR0076, read-out: MIC) | MIC (Klebsiella pneumoniae; Klebsiella pneumoniae, K. pneumoniae AR0079, read-out: MIC) | MIC (Klebsiella pneumoniae; Klebsiella pneumoniae, K. pneumoniae AR0080, read-out: MIC) | MIC (Klebsiella pneumoniae; Klebsiella pneumoniae, K. pneumoniae AR0087, read-out: MIC) | MIC (Klebsiella pneumoniae; Klebsiella pneumoniae, K. pneumoniae AR0098, read-out: MIC) | MIC (Klebsiella pneumoniae; Klebsiella pneumoniae, K. pneumoniae AR0106, read-out: MIC) | MIC (Klebsiella pneumoniae; Klebsiella pneumoniae, K. pneumoniae AR0107, read-out: MIC) | MIC (Klebsiella pneumoniae; Klebsiella pneumoniae, K. pneumoniae AR0109, read-out: MIC) | MIC (Klebsiella pneumoniae; Klebsiella pneumoniae, K. pneumoniae AR0112, read-out: MIC) | MIC (Klebsiella pneumoniae; Klebsiella pneumoniae, K. pneumoniae AR0113, read-out: MIC) | MIC (Klebsiella pneumoniae; Klebsiella pneumoniae, K. pneumoniae AR0115, read-out: MIC) | MIC (Klebsiella pneumoniae; Klebsiella pneumoniae, K. pneumoniae AR0117, read-out: MIC) | MIC (Klebsiella pneumoniae; Klebsiella pneumoniae, K. pneumoniae AR0120, read-out: MIC) | MIC (Klebsiella pneumoniae; Klebsiella pneumoniae, K. pneumoniae AR0125, read-out: MIC) | MIC (Klebsiella pneumoniae; Klebsiella pneumoniae, K. pneumoniae AR0126, read-out: MIC) | MIC (Klebsiella pneumoniae; Klebsiella pneumoniae, K. pneumoniae AR0129, read-out: MIC) | MIC (Klebsiella pneumoniae; Klebsiella pneumoniae, K. pneumoniae AR0135, read-out: MIC) | MIC (Klebsiella pneumoniae; Klebsiella pneumoniae, K. pneumoniae AR0138, read-out: MIC) | MIC (Klebsiella pneumoniae; Klebsiella pneumoniae, K. pneumoniae AR0139, read-out: MIC) | MIC (Klebsiella pneumoniae; Klebsiella pneumoniae, K. pneumoniae AR0140, read-out: MIC) | MIC (Klebsiella pneumoniae; Klebsiella pneumoniae, K. pneumoniae AR0141, read-out: MIC) | MIC (Klebsiella pneumoniae; Klebsiella pneumoniae, K. pneumoniae AR0142, read-out: MIC) | MIC (Klebsiella pneumoniae; Klebsiella pneumoniae, K. pneumoniae AR0143, read-out: MIC) | MIC (Klebsiella pneumoniae; Klebsiella pneumoniae, K. pneumoniae AR0145, read-out: MIC) | MIC (Klebsiella pneumoniae; Klebsiella pneumoniae, K. pneumoniae AR0146, read-out: MIC) | MIC (Klebsiella pneumoniae; Klebsiella pneumoniae, K. pneumoniae AR0148, read-out: MIC) | MIC (Klebsiella pneumoniae; Klebsiella pneumoniae, K. pneumoniae AR0152, read-out: MIC) | MIC (Klebsiella pneumoniae; Klebsiella pneumoniae, K. pneumoniae AR0153, read-out: MIC) | MIC (Klebsiella pneumoniae; Klebsiella pneumoniae, K. pneumoniae AR0158, read-out: MIC) | MIC (Klebsiella pneumoniae; Klebsiella pneumoniae, K. pneumoniae AR0160, read-out: MIC) | MIC (Klebsiella pneumoniae; Klebsiella pneumoniae, K. pneumoniae AR0347, read-out: MIC) | MIC (Klebsiella pneumoniae; Klebsiella pneumoniae, K. pneumoniae AR0542, read-out: MIC) | MIC (Klebsiella pneumoniae; Klebsiella pneumoniae, K. pneumoniae AR0548, read-out: MIC) | MIC (Klebsiella pneumoniae; Klebsiella pneumoniae, K. pneumoniae AR0550, read-out: MIC) | MIC (Klebsiella pneumoniae; Klebsiella pneumoniae, K. pneumoniae AR0552, read-out: MIC) | MIC (Klebsiella pneumoniae; Klebsiella pneumoniae, K. pneumoniae AR0553, read-out: MIC) | MIC (Klebsiella pneumoniae; Klebsiella pneumoniae, K. pneumoniae AR0554, read-out: MIC) | MIC (Klebsiella pneumoniae; Klebsiella pneumoniae, K. pneumoniae AR0555, read-out: MIC) | MIC (Klebsiella pneumoniae; Klebsiella pneumoniae, K. pneumoniae AR-0040, read-out: MIC)
16 µg/mL: MIC (Escherichia coli [1]; Escherichia coli, E. coli AR0081, read-out: MIC) | MIC (Escherichia coli [1]; Escherichia coli, E. coli AR0104, read-out: MIC) | MIC (Escherichia coli [1]; Escherichia coli, E. coli AR0118, read-out: MIC) | MIC (Escherichia coli [1]; Escherichia coli, E. coli AR0128, read-out: MIC) | MIC (Escherichia coli [1]; Escherichia coli, E. coli AR0137, read-out: MIC) | MIC (Escherichia coli [1]; Escherichia coli, E. coli AR0150, read-out: MIC)
9.2×10^−7: resistance frequency (Escherichia coli [2])
4 µg/mL: MIC (Escherichia coli [1]; Escherichia coli, E. coli ELZ 4081, read-out: MIC)
8 µg/mL: MIC (Escherichia coli [1]; Escherichia coli, ATCC25922, E. coli ATCC 25922, read-out: MIC) | MIC (Escherichia coli [1]; Escherichia coli, E. coli AR0077, read-out: MIC) | MIC (Escherichia coli [1]; Escherichia coli, E. coli AR0086, read-out: MIC) | MIC (Escherichia coli [1]; Escherichia coli, E. coli ELZ 4017, read-out: MIC) | MIC (Escherichia coli [1]; Escherichia coli, E. coli ELZ 4072, read-out: MIC)
fared poorly: mice with septic infection rescued (survival) (E. coli AR0349)
well tolerated: tolerability ([3]; C57BL/6 mice, daily dosing of 200 mg/kg for 5 consecutive days) | tolerability ([3]; C57BL/6 mice, single dose of 200 mg/kg)
1 µg/mL: MIC (Escherichia coli [1]; Escherichia coli, E. coli ΔrfaC JW3596 (permeability mutant))
>32 µg/mL: MIC (Escherichia coli [1]; E. coli AR-0349 (colistin-resistant clinical isolate)) | MIC (Escherichia coli [1]; E. coli AR-0549) | MIC (Klebsiella pneumoniae; K. pneumoniae AR-0040) | MIC (Klebsiella pneumoniae; K. pneumoniae ATCC BAA-1705)

— US20250051300A1, “GRAM-NEGATIVE SPECIFIC ANTIBIOTICS SPARING EFFECT ON GUT MICROBIOME” (THE BOARD OF TRUSTEES OF THE UNIVERSITY OF ILLINOIS, priority 2021, published 2025)
